Measured values published in patent US20230391826A1, “COMPOSITIONS AND METHODS FOR TREATING DISEASES” (Sanford Burnham Prebys Medical Discovery Institute, priority 2020, published 2023).
In brackets after ≈: the same amount, converted by molar mass. Where two headings read alike, the source gives them in different places. Where a SMILES comes first, the peptide text is derived from it. Bridges are numbered along the chain shown (N, C = ends). Roman numbers before positions name the chains, in order. [ ]: non-standard residue; d: D form. βAla = NCCC(=O)O

Assays:
EphA2 [1] = target: T1, EphA2 (Homo sapiens, UniProt P29317); assay: EphA2 autophosphorylation on tyrosine 588 in PC3 cells (immunoblot dose-response); type: cell-based; set-up: EphA2 is the prevalent endogenously expressed EphA receptor in these cells; endogenous in cells; host or cells: PC3 prostate cancer cells; conditions: for Etop pY588: Table 3, 15 min, saturating ligand, pY588/EphA2 normalized to ephrinA1-Fc
Experimental: (§1) (FIG. 2A) Dose-response curves for EphA2 autophosphorylation on tyrosine 588 (pY588; purple) and for downstream inhibition of AKT phosphorylation (magenta). PC3 cells were treated for 15 min with different concentrations of the indicated peptides. […] The graphs show quantifications from multiple blots (averages ±SE; the number of experiments used to generate each curve is shown in Table 3). […] (FIG. 2B) Examples of immunoblots of lysates from PC3 cells treated with the indicated concentrations of representative ligands. […] A white vertical line indicates removal of irrelevant lanes. […] The bars show averages ±SE, and the individual measurements are shown as black dots. […] Plots of Etop versus EC50 for pY588 in FIG. 2D and for pAKT inh in FIG. 2E. Averages ±SE are shown for the peptides and ephrinA1.
To examine the agonistic properties of the different dimeric peptide ligands, EphA2 autophosphorylation on tyrosine 588 (Y588) was measured, which is indicative of receptor activation and mediates binding of SH2 domain-containing proteins that link EphA2 to various downstream signaling pathways (FIG. 7). For these experiments, PC3 prostate cancer cells were stimulated with the dimeric peptides because EphA2 is the prevalent endogenously expressed EphA receptor in these cells, allowing comparisons with ephrins.

EphA2 [2] = target: T1, EphA2; assay: Bias factor βlig (pY588 versus pAKT inhibition, PC3 cells, reference ephrinA1-Fc); type: cell-based; set-up: EphA2 is the prevalent endogenously expressed EphA receptor in these cells; endogenous in cells; host or cells: PC3 prostate cancer cells; conditions: for βu (bias factor βlig): Table 3, reference ligand ephrinA1-Fc (βlig=0)
Experimental: FIG. 6 illustrates an example where Ligands can bias EphA2 signaling responses. The bias factor βlig was calculated for the indicated ligands using ephrinA1-Fc as the reference ligand. Statistical significance for the comparison of the different ligands with the reference ligand ephrinA1-Fc (βlig=0) was determined by one sample t test; *, P<0.05; **, P<0.01; ***, P<0.001; ****, P<0.0001.
FIG. 14A-14E illustrates an example where distinct factors are responsible for EphA2 biased signaling induced by different ligands. (FIG. 14A) Etop values for EphA2 Y588 phosphorylation, as in FIG. 2C. (FIG. 14B) Etop values for inhibition of AKT phosphorylation. (FIG. 14C) Graph of the ratios of the Etop values for EphA2 Y588 phosphorylation and inhibition of AKT phosphorylation, which are used in the βlig calculation. (FIG. 14D) Graph of the ratios of the EC50 values for EphA2 Y588 phosphorylation and inhibition of AKT phosphorylation, which are used in the βlig calculation. (FIG. 14E) Equation used to calculate the bias factor βlig for each ligand. The terms of the equation are rearranged, compared to equation (1) in the Materials and Methods, to better conform to the graphs in FIG. 14A-14D. **, P<0.01; ***, P<0.001; ****, P<0.0001; ns, not significant for the comparison with ephrinA1-Fc by one-way ANOVA and Dunnett's posthoc test.
The possibility of EphA2 biased signaling by analyzing the dose-response curves obtained with endogenous EphA2 in PC3 cells (FIG. 2A) was explored using approaches developed for GPCRs. This involves using EphA2 Y588 phosphorylation and AKT phosphorylation quantified as a function of ligand concentration to determine and compare the potency (EC50) and efficacy (Etop) for the two responses induced by different ligands. Remarkably, large differences among the ligands in the Etop values for Y588 phosphorylation (FIGS. 2C, 2D and 14A), but not in the Etop values for AKT inhibition (FIGS. 2E and 14B), were observed. In terms of relative efficacies for pY588 and pAKT inhibition, the C-terminally linked dimers and monomeric ligands behave differently from ephrinA1-Fc, while the N-terminally linked dimers and the head-to-tail dimer (8) are similar to ephrinA1-Fc (FIG. 14C). […] Thus, the type of linkage affects EphA2 signaling properties induced by the dimeric peptides.
The determined EC50 and Etop values allowed us to calculate the bias factor βlig for the two different responses induced by the various ligands relative to ephrinA1-Fc as the reference ligand (FIG. 14E). […] Remarkably, the bias originates from different mechanisms that depend on the class of ligands, with the N-terminally linked and head-to-tail dimers modulating relative potencies and the C-terminally-linked dimers and monomers modulating relative efficacies.

[3] = target: T2, EphA2 extracellular domain fused to Fc (EphA2-Fc) (Homo sapiens, UniProt P29317); assay: ELISA: inhibition of ephrinA5-AP binding to immobilized EphA2-Fc; conditions: inhibition of ephrin-A5 binding to EphA2; number of experiments in parentheses; read-out: Inc50 (nM) by ELISA
T2 construct: immobilized EphA2 extracellular domain fused to the Fc portion of an antibody (EphA2-Fc)
Description: FIG. 1A-1C illustrates an example of Potency and selectivity of EphA2-targeting dimeric peptides. (FIG. 1A) ELISAs comparing the ability of the peptides to inhibit binding of ephrin-A5 fused to alkaline phosphatase (ephrinA5-AP) to the immobilized EphA2 extracellular domain fused to the Fc portion of an antibody (EphA2-Fc). The graphs show averages ±SD from triplicate measurements from a representative experiment. IC50 values calculated from the fitted curves in each experiment are shown. Averages of IC50 values obtained from multiple experiments are shown in panel FIG. 1B and Table 3. The 10 nM peptide concentration is outlined in red. (FIG. 1B) Plot of the average IC50 values (listed in Table 3) for different ligands. […] (FIG. 1C) EphrinA5-AP binding to EphA receptors and ephrinB2-AP binding to EphB receptors in the presence of dimeric peptides representing each of the three configurations. Values are normalized to ephrin binding without peptide. The graphs show averages and SDs from triplicate measurements (with each measurement shown as a dot).

EphA2 LBD [4] = target: T3, EphA2 LBD (Homo sapiens, UniProt P29317); assay: Isothermal titration calorimetry (ITC) with soluble EphA2 LBD; type: binding
T3 construct: made in house; host or cells: E. coli Origami 2(DE3)
Experimental: (FIG. 10A-10E) The EphA2 LBD was titrated at 200-250 μM into 10-12.5 μM of the indicated peptide.
For ITC, all peptides are dissolved in DMSO and both the EphA2 LBD and the peptides are diluted to obtain a final buffer containing 9.5 mM HEPES, pH 7.9, 95 mM NaCl, and 5% DMSO. The experiments are carried out at 296 K (23° C.) using an ITC200 calorimeter (Microcal). Two-microliter aliquots of a peptide solution are injected into the cell containing 205 μL EphA2 LBD. 200-400 μM peptides are titrated into 20-40 μM EphA2 LBD. Experimental data are analyzed using the Origin software package (Microcal). The integrated values for the reaction heats are normalized to the amount of injected peptide after blank subtraction.

AKT = assay: Inhibition of AKT phosphorylation on S473 in PC3 cells; type: cell-based; conditions: for EC50 / Etop pAKT inhlb: Table 3; for EC50: PC3 cells treated for 15 min, read-out: ECsa pAKT inhlb.; for Etop pAKT inhlb: 15 min, 1-pAKT/AKT normalized to cells not treated with ligand
Experimental: as §1

[5] = Peptide solubility in PBS/H2O/DMSO; type: physicochemical
Experimental: Peptide identity and purity are documented by mass spectrometry and high-performance liquid chromatography (HPLC). The peptide solubility values are determined. Concentrated peptide stocks are prepared in DMSO or H2O and stored frozen at −80° C.

EphA2 [6] = target: T1, EphA2; assay: EphA2 activation (Y588 phosphorylation) in cells by monomeric YSA derivatives; type: cell-based; set-up: EphA2 is the prevalent endogenously expressed EphA receptor in these cells; endogenous in cells; host or cells: PC3 prostate cancer cells
Description: However, as expected given their much higher potency, these two peptides are active at nanomolar concentrations. The C-terminal biotin promotes the agonistic activity of YSA derivative peptides. […] This is confirmed with the crystal structures. Thus, peptides with 1 to 7 residues between Prol 0, which is conserved in all YSA derivatives of Table 2, and the Lys-biotin residue, can all efficiently activate EphA2. […] Non-amidated β[…] has the ability to activate EphA2 in cells, even though the concentrations needed are about 10-fold higher than for the biotinylated peptide and the maximal […] phosphorylation induced by saturating peptide concentrations is about 40% lower. The C-terminally amidated version of the peptide loses the ability to activate EphA2, consistent with a role of the C-terminal negative charge for EphA2 activation even in the absence of biotin.

EphA2 LBD [7] = target: T3, EphA2 LBD; conditions: previous studies, cited from earlier work
[8] = DMSO, Table 4, third of PBS/H20/DMSO, read-out: Solubility in DMSO
[9] = DMSO, third of PBS/H2O/DMSO, read-out: Solubility in DMSO
[10] = PBS, Table 4, first of PBS/H20/DMSO, read-out: Solubility in PBS
[11] = PBS, first of PBS/H2O/DMSO, read-out: Solubility in PBS
[12] = water, Table 4, second of PBS/H20/DMSO, read-out: Solubility in H20
[13] = water, second of PBS/H2O/DMSO, read-out: Solubility in H2O

T3 sequence (P29317 28-200): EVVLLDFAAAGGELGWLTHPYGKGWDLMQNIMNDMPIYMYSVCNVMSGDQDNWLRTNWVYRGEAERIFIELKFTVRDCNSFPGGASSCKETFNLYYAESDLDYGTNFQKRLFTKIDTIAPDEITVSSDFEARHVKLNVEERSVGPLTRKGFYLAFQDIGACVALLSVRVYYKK
T1 sequence (P29317 24-976): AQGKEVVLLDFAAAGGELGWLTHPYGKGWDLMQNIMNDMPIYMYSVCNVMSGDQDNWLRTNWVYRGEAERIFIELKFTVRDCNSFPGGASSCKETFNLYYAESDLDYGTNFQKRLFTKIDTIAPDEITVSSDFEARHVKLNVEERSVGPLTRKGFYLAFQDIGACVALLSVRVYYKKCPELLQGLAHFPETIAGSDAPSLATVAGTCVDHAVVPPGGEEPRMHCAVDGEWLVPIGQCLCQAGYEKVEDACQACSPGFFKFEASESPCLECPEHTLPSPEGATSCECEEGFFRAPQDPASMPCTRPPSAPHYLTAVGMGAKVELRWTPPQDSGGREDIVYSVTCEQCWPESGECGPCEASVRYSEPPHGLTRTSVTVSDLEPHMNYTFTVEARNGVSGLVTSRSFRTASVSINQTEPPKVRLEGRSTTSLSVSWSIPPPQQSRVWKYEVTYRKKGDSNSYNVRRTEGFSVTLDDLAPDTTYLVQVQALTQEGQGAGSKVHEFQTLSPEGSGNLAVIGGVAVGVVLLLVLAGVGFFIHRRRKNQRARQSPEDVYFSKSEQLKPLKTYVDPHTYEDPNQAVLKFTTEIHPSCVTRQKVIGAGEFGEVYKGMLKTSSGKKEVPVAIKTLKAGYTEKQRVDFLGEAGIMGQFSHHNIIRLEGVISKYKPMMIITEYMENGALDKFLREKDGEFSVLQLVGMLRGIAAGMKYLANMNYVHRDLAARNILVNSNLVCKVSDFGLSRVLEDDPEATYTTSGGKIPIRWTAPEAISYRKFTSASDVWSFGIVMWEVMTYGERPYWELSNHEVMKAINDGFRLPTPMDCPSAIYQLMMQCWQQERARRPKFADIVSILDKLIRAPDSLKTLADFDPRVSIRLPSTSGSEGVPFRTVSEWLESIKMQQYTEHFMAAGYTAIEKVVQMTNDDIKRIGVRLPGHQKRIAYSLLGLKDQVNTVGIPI
T2 sequence (P29317 24-537 limits assumed): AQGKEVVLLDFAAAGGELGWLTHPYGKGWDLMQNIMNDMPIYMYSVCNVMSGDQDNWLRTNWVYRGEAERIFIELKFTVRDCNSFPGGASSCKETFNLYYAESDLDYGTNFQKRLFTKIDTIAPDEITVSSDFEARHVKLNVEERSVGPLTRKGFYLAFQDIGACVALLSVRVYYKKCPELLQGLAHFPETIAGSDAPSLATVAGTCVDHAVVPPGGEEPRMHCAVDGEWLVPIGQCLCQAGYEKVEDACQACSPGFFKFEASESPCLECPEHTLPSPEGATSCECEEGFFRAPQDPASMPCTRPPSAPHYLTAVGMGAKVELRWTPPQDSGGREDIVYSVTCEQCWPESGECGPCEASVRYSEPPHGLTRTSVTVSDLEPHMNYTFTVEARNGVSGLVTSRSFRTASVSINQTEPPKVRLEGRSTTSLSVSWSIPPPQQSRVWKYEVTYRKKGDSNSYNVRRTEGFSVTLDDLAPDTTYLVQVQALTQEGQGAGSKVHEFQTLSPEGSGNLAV

Compound | Etop pY588 (EphA2 [1]) | βu (bias factor βlig) (EphA2 [2]) | IC50 [3] [nM] | EC50 (AKT) [nM] | Etop pAKT inhlb (AKT; PC3 cells) | solubility [5, 8] [µg/mL] | solubility [5, 9] [µg/mL] | solubility [5, 10] [µg/mL] | solubility [5, 11] [µg/mL] | solubility [5, 12] [µg/mL] | solubility [5, 13] [µg/mL] | further results
CC(C)C[C@H](NC(=O)[C@H](Cc1c[nH]c2ccccc12)NC(=O)CCN)C(=O)N[C@@H](C)C(=O)N[C@@H](Cc1ccc(O)cc1)C(=O)N1CCC[C@H]1C(=O)N[C@@H](CC(=O)O)C(=O)N[C@@H](CO)C(=O)N[C@H](C(=O)N1CCC[C@H]1C(=O)N[C@@H](Cc1ccc(O)cc1)C(=O)NCC(=O)N[C@@H](CO)C(=O)NCC(=O)N[C@@H](CSSC[C@H](NC(=O)CNC(=O)[C@H](CO)NC(=O)CNC(=O)[C@H](Cc1ccc(O)cc1)NC(=O)[C@@H]1CCCN1C(=O)[C@@H](NC(=O)[C@H](CO)NC(=O)[C@H](CC(=O)O)NC(=O)[C@@H]1CCCN1C(=O)[C@H](Cc1ccc(O)cc1)NC(=O)[C@H](C)NC(=O)[C@H](CC(C)C)NC(=O)[C@H](Cc1c[nH]c2ccccc12)NC(=O)CCN)C(C)C)C(=O)O)C(=O)O)C(C)C [compound 1, βA-WLA-YGSGC dimer (C-ter)] (I: H-[βAla]WLAYPDSVPYGSGC-OH / II: H-[βAla]WLAYPDSVPYGSGC-OH; disulfide I:15-II:15; N-terminus and C-terminus assumed) | 0.49 ± 0.06 | 0.506 ± 0.12 | 71 ± 26 | 39 ± 8 | 0.90 ± 0.04 | 5000 (≈ 1580 µM) | 5000 (≈ 1580 µM) | < 100 | < 100 | < 100 | < 100 | Kd (EphA2 LBD [4]): 2900 nM; N (binding stoichiometry by ITC) (EphA2 LBD [4]; Table 3): N = 1.7 ± 0.2; -TΔS (EphA2 LBD [4]; Table 6): 16.30 ± 11 kcal/mol; N (EphA2 LBD [4]; Table 6, binding stoichiometry): 1.7 ± 0.2; ΔG (EphA2 LBD [4]; Table 6, change in Gibbs energy): -7.55 ± 0.27 kcal/mol; ΔH (EphA2 LBD [4]; Table 6, change in enthalpy): -23.85 ± 11 kcal/mol
CC(C)C[C@H](NC(=O)[C@H](Cc1c[nH]c2ccccc12)NC(=O)[C@H](C)NC(=O)CNC(=O)[C@@H](N)CSSC[C@H](N)C(=O)NCC(=O)N[C@@H](C)C(=O)N[C@@H](Cc1c[nH]c2ccccc12)C(=O)N[C@@H](CC(C)C)C(=O)N[C@@H](C)C(=O)N[C@@H](Cc1ccc(O)cc1)C(=O)N1CCC[C@H]1C(=O)N[C@@H](CC(=O)O)C(=O)N[C@@H](CO)C(=O)N[C@H](C(=O)N1CCC[C@H]1C(=O)N[C@@H](Cc1ccc(O)cc1)C(=O)N[C@@H](CCCNC(=N)N)C(=O)N1CCC[C@H]1C(=O)N[C@@H](CCCCN)C(N)=O)C(C)C)C(=O)N[C@@H](C)C(=O)N[C@@H](Cc1ccc(O)cc1)C(=O)N1CCC[C@H]1C(=O)N[C@@H](CC(=O)O)C(=O)N[C@@H](CO)C(=O)N[C@H](C(=O)N1CCC[C@H]1C(=O)N[C@@H](Cc1ccc(O)cc1)C(=O)N[C@@H](CCCNC(=N)N)C(=O)N1CCC[C@H]1C(=O)N[C@@H](CCCCN)C(N)=O)C(C)C [compound 6, CGA-WLA-YRPKam dimer (N-ter)] | 0.98 ± 0.08 | 0.51 ± 0.13 | 0.4 ± 0.1 | 0.08 ± 0.02 | 0.97 ± 0.03 | 10000 (≈ 2750 µM) | 10000 (≈ 2750 µM) | < 100 | < 100 | 5000 (≈ 1370 µM) | 5000 (≈ 1370 µM) | Emax PY588 (EphA2 [1]; ephrinA1Fc = 1.00): 0.80 ± 0.01; EC50 (EphA2 [1]; read-out: EC50 PY588): 0.12 ± 0.01 nM; Blig (EphA2 [2]; bias factor, reference ligand ephrinA1Fc): 0.36 ± 0.09; IC50 (AKT; PC3 cells): 0.043 ± 0.007 nM
CC(C)C[C@H](NC(=O)[C@H](Cc1c[nH]c2ccccc12)NC(=O)CCN)C(=O)N[C@@H](C)C(=O)N[C@@H](Cc1ccc(O)cc1)C(=O)N1CCC[C@H]1C(=O)N[C@@H](CC(=O)O)C(=O)N[C@@H](CO)C(=O)N[C@H](C(=O)N1CCC[C@H]1C(=O)N[C@@H](Cc1ccc(O)cc1)C(=O)N[C@@H](CCCNC(=N)N)C(=O)N1CCC[C@H]1C(=O)N[C@@H](CCCCN)C(=O)O)C(C)C [βA-WLA-YRPK] |  |  |  |  |  |  |  |  |  |  |  | maximal Y588 phosphorylation at saturating peptide concentrations, lower than the biotinylated peptide (EphA2 [6]): about 40%; concentrations needed to activate EphA2 in cells relative to the biotinylated peptide (EphA2 [6]; higher than for βA-WLA-YRPK-bio): about 10 fold; improvement of binding affinity compared to monomeric YSA-GSGSK-bio (EphA2 LBD [7]): 50 fold; Kd (EphA2 LBD [7]; read-out: binding affinity for the EphA2 LBD measured by ITC): ~200 nM
